Assay results taken from ChEMBL document CHEMBL2390874, “Synthesis, antibacterial activity and cytotoxicity of new fused pyrazolo[1,5-a]pyrimidine and pyrazolo[5,1-c][1,2,4]triazine derivatives from new 5-aminopyrazoles” (Eur J Med Chem, 2013).
Converted amounts (≈) assume the structure as drawn. The source made the active and inactive calls. No cut-off for these calls is given here.

How the values were obtained:
Serratia marcescens [1] = experiment: Antibacterial activity against Serratia marcescens ATCC 13880 assessed as growth inhibition at 1 mg/ml after 24 hrs by agar diffusion method; type: functional; settings: ATCC 13880, 24 h, read-out: DIZ
[2] = system: Staphylococcus epidermidis; experiment: Antibacterial activity against Staphylococcus epidermidis ATCC 12228 assessed as growth inhibition at 1 mg/ml after 24 hrs by agar diffusion method; type: functional, organism-based
Pseudomonas aeruginosa [3] = experiment: Bactericidal activity against Pseudomonas aeruginosa ATCC 10145 by broth dilution method; type: functional
Escherichia coli [4] = experiment: Antibacterial activity against Escherichia coli ATCC 10536 assessed as growth inhibition by broth dilution method; type: functional
Enterococcus faecalis = experiment: Antibacterial activity against Enterococcus faecalis ATCC 14506 assessed as growth inhibition at 1 mg/ml after 24 hrs by agar diffusion method; type: functional, organism-based
Bacillus subtilis [5] = experiment: Antibacterial activity against Bacillus subtilis ATCC 11774 assessed as growth inhibition by broth dilution method; type: functional
Salmonella typhimurium = experiment: Antibacterial activity against Salmonella typhimurium ATCC 51812 assessed as growth inhibition at 1 mg/ml after 24 hrs by agar diffusion method; type: functional, organism-based; settings: Salmonella enterica subsp. enterica serovar Typhimurium
[6] = Selectivity index, ratio of CC50 for african green monkey vero cells to MIC for Pseudomonas aeruginosa ATCC 10145; type: functional
[7] = Cytotoxicity against african green monkey vero cells by MTT assay; type: cell-based; settings: chlorocebus sabaeus
[8] = Selectivity index, ratio of CC50 for african green monkey vero cells to MIC for Staphylococcus aureus ATCC 25923; type: functional
Staphylococcus aureus [9] = experiment: Antibacterial activity against Staphylococcus aureus ATCC 25923 assessed as growth inhibition at 1 mg/ml after 24 hrs by agar diffusion method; type: functional; settings: ATCC 25923, 24 h, read-out: DIZ
Staphylococcus aureus [10] = experiment: Antibacterial activity against Staphylococcus aureus ATCC 25923 assessed as growth inhibition by broth dilution method; type: functional
[11] = Selectivity index, ratio of CC50 for african green monkey vero cells to MIC for Escherichia coli ATCC 10536; type: functional
Staphylococcus aureus [12] = experiment: Bactericidal activity against Staphylococcus aureus ATCC 25923 by broth dilution method; type: functional
[13] = Selectivity index, ratio of CC50 for african green monkey vero cells to MIC for Bacillus subtilis ATCC 11774; type: functional
Bacillus subtilis [14] = experiment: Bactericidal activity against Bacillus subtilis ATCC 11774 by broth dilution method; type: functional
Bacillus subtilis [15] = experiment: Antibacterial activity against Bacillus subtilis ATCC 11774 assessed as growth inhibition at 1 mg/ml after 24 hrs by agar diffusion method; type: functional; settings: ATCC 11774, 24 h, read-out: DIZ
Pseudomonas aeruginosa [16] = experiment: Antibacterial activity against Pseudomonas aeruginosa ATCC 10145 assessed as growth inhibition at 1 mg/ml after 24 hrs by agar diffusion method; type: functional; settings: ATCC 10145, 24 h, read-out: DIZ
Escherichia coli [17] = experiment: Antibacterial activity against Escherichia coli ATCC 10536 assessed as growth inhibition at 1 mg/ml after 24 hrs by agar diffusion method; type: functional; settings: ATCC 10536, 24 h, read-out: DIZ
Staphylococcus aureus [18] = experiment: Antibacterial activity against methicillin-resistant Staphylococcus aureus ATCC 43300 assessed as growth inhibition at 1 mg/ml after 24 hrs by agar diffusion method; type: functional, organism-based
Pseudomonas aeruginosa [19] = experiment: Antibacterial activity against Pseudomonas aeruginosa ATCC 10145 assessed as growth inhibition by broth dilution method; type: functional
Escherichia coli [20] = experiment: Bactericidal activity against Escherichia coli ATCC 10536 by broth dilution method; type: functional
Serratia marcescens [21] = experiment: Bactericidal activity against Serratia marcescens ATCC 13880 by broth dilution method; type: functional
Serratia marcescens [22] = experiment: Antibacterial activity against Serratia marcescens ATCC 13880 assessed as growth inhibition by broth dilution method; type: functional
[23] = Selectivity index, ratio of CC50 for african green monkey vero cells to MIC for Serratia marcescens ATCC 13880; type: functional
Bacillus subtilis [24] = experiment: Antibacterial activity against Bacillus subtilis ATCC 11774 assessed as growth inhibition after 24 hrs by agar diffusion method; type: functional
Staphylococcus aureus [25] = experiment: Antibacterial activity against Staphylococcus aureus ATCC 25923 assessed as growth inhibition after 24 hrs by agar diffusion method; type: functional
Escherichia coli [26] = experiment: Antibacterial activity against Escherichia coli ATCC 10536 assessed as growth inhibition at 10 ug after 24 hrs by agar diffusion method; type: functional; settings: ATCC 10536, 24 h, read-out: DIZ
Serratia marcescens [27] = experiment: Antibacterial activity against Serratia marcescens ATCC 13880 assessed as growth inhibition at 10 ug after 24 hrs by agar diffusion method; type: functional; settings: ATCC 13880, 24 h, read-out: DIZ
Pseudomonas aeruginosa [28] = experiment: Antibacterial activity against Pseudomonas aeruginosa ATCC 10145 assessed as growth inhibition at 10 ug after 24 hrs by agar diffusion method; type: functional; settings: ATCC 10145, 24 h, read-out: DIZ

Row | Structure (SMILES) | zone of inhibition at 1000 µg/mL (Serratia marcescens [1]) | growth inhibition (GI) [2] | MBC (Pseudomonas aeruginosa [3]) | MIC (Escherichia coli [4]) | growth inhibition (GI) (Enterococcus faecalis) | MIC (Bacillus subtilis [5]) | growth inhibition (GI) (Salmonella typhimurium) | CC50 [7] | Selectivity Index [8] | zone of inhibition at 1000 µg/mL (Staphylococcus aureus [9]) | MIC (Staphylococcus aureus [10]) | Selectivity Index [11] | MBC (Staphylococcus aureus [12]) | Selectivity Index [13] | MBC (Bacillus subtilis [14]) | zone of inhibition at 1000 µg/mL (Bacillus subtilis [15]) | zone of inhibition at 1000 µg/mL (Pseudomonas aeruginosa [16]) | zone of inhibition at 1000 µg/mL (Escherichia coli [17]) | growth inhibition (GI) (Staphylococcus aureus [18]) | MBC (Escherichia coli [20]) | other results
1 | Cc1ccc(C)n1-c1[nH]nc(N2CCCCC2)c1C#N | 6 mm | inactive | 8000 µg/mL (≈ 29.7 mM) | 8000 µg/mL (≈ 29.7 mM) | inactive | 4000 µg/mL (≈ 14.9 mM) | inactive | 1400 µg/mL (≈ 5.2 mM) | 0.18 | 12 mm | 8000 µg/mL (≈ 29.7 mM) | 0.18 | 8000 µg/mL (≈ 29.7 mM) | 0.35 | 8000 µg/mL (≈ 29.7 mM) | 16 mm | 7 mm | 7 mm | inactive | 8000 µg/mL (≈ 29.7 mM) | Selectivity Index [6]: 0.35; MIC (Pseudomonas aeruginosa [19]): 4000 µg/mL (≈ 14.9 mM)
2 | CSc1c(C#N)c(N)nc2c(C#N)c(N3CCCCC3)nn12 | 7 mm | inactive | 16000 µg/mL (≈ 51.1 mM) | 16000 µg/mL (≈ 51.1 mM) | inactive | 16000 µg/mL (≈ 51.1 mM) | inactive | 1750 µg/mL (≈ 5.58 mM) | 0.11 | 11 mm | 16000 µg/mL (≈ 51.1 mM) | 0.11 | 16000 µg/mL (≈ 51.1 mM) | 0.11 | 16000 µg/mL (≈ 51.1 mM) | 10 mm | 7 mm | 10 mm | inactive | 16000 µg/mL (≈ 51.1 mM) | Selectivity Index [6]: 0.22; MBC (Serratia marcescens [21]): 16000 µg/mL (≈ 51.1 mM); MIC (Serratia marcescens [22]): 16000 µg/mL (≈ 51.1 mM); MIC (Pseudomonas aeruginosa [19]): 8000 µg/mL (≈ 25.5 mM); Selectivity Index [23]: 0.11
3 | O=C(N[C@H](CO)[C@H](O)c1ccc([N+](=O)[O-])cc1)C(Cl)Cl [CHLORAMPHENICOL] | – | – | – | – | – | – | – | – | – | – | – | – | – | – | – | – | – | – | – | – | diameter of the inhibition zone (DIZ) (Bacillus subtilis [24]): 25 mm; diameter of the inhibition zone (DIZ) (Staphylococcus aureus [25]): 25 mm
4 | N#Cc1c(N2CCCCC2)n[nH]c1N | 6 mm | inactive | 8000 µg/mL (≈ 41.8 mM) | 4000 µg/mL (≈ 20.9 mM) | inactive | 4000 µg/mL (≈ 20.9 mM) | inactive | 550 µg/mL (≈ 2.88 mM) | 0.14 | 15 mm | 16000 µg/mL (≈ 83.7 mM) | 0.14 | 16000 µg/mL (≈ 83.7 mM) | 0.14 | 8000 µg/mL (≈ 41.8 mM) | 9 mm | 7 mm | 15 mm | inactive | 8000 µg/mL (≈ 41.8 mM) | Selectivity Index [6]: 0.07; MBC (Serratia marcescens [21]): 4000 µg/mL (≈ 20.9 mM); MIC (Serratia marcescens [22]): 2000 µg/mL (≈ 10.5 mM); MIC (Pseudomonas aeruginosa [19]): 8000 µg/mL (≈ 41.8 mM); Selectivity Index [23]: 0.28
5 | N#Cc1c(N2CCCC2)n[nH]c1N | 7 mm | inactive | 16000 µg/mL (≈ 90.3 mM) | 8000 µg/mL (≈ 45.1 mM) | inactive | 8000 µg/mL (≈ 45.1 mM) | inactive | 2500 µg/mL (≈ 14.1 mM) | 0.31 | 10 mm | 16000 µg/mL (≈ 90.3 mM) | 0.31 | 16000 µg/mL (≈ 90.3 mM) | 0.31 | 8000 µg/mL (≈ 45.1 mM) | 9 mm | 7 mm | 9 mm | inactive | 16000 µg/mL (≈ 90.3 mM) | Selectivity Index [6]: 0.31; MBC (Serratia marcescens [21]): 8000 µg/mL (≈ 45.1 mM); MIC (Serratia marcescens [22]): 8000 µg/mL (≈ 45.1 mM); MIC (Pseudomonas aeruginosa [19]): 8000 µg/mL (≈ 45.1 mM); Selectivity Index [23]: 0.31
6 | Cc1cc(C)n2nc(N3CCCCC3)c(C#N)c2n1 | 7 mm | inactive | – | 16000 µg/mL (≈ 62.7 mM) | inactive | 16000 µg/mL (≈ 62.7 mM) | inactive | 1250 µg/mL (≈ 4.9 mM) | 0.08 | 12 mm | 16000 µg/mL (≈ 62.7 mM) | 0.08 | 16000 µg/mL (≈ 62.7 mM) | 0.08 | 16000 µg/mL (≈ 62.7 mM) | 10 mm | 6 mm | 11 mm | inactive | 16000 µg/mL (≈ 62.7 mM) | MBC (Serratia marcescens [21]): 16000 µg/mL (≈ 62.7 mM); MIC (Serratia marcescens [22]): 16000 µg/mL (≈ 62.7 mM); Selectivity Index [23]: 0.08
7 | N#Cc1c(N2CCOCC2)n[nH]c1N | 6 mm | inactive | 16000 µg/mL (≈ 82.8 mM) | 8000 µg/mL (≈ 41.4 mM) | inactive | 16000 µg/mL (≈ 82.8 mM) | inactive | 2340 µg/mL (≈ 12.1 mM) | 0.29 | 11 mm | 16000 µg/mL (≈ 82.8 mM) | 0.29 | > 16000 µg/mL | 0.15 | 16000 µg/mL (≈ 82.8 mM) | 6 mm | 7 mm | 11 mm | inactive | 16000 µg/mL (≈ 82.8 mM) | Selectivity Index [6]: 0.29; MBC (Serratia marcescens [21]): 8000 µg/mL (≈ 41.4 mM); MIC (Serratia marcescens [22]): 8000 µg/mL (≈ 41.4 mM); MIC (Pseudomonas aeruginosa [19]): 8000 µg/mL (≈ 41.4 mM); Selectivity Index [23]: 0.29
8 | CN[C@@H]1[C@H](O[C@H]2[C@H](O[C@H]3[C@H](O)[C@@H](O)[C@H](N=C(N)N)[C@@H](O)[C@@H]3N=C(N)N)O[C@@H](C)[C@]2(O)C=O)O[C@@H](CO)[C@H](O)[C@H]1O [STREPTOMYCIN] | – | – | – | – | – | – | – | – | – | – | – | – | – | – | – | – | – | – | – | – | zone of inhibition at 10 µg/disc (Escherichia coli [26]): 13 mm; zone of inhibition at 10 µg/disc (Serratia marcescens [27]): 20 mm; zone of inhibition at 10 µg/disc (Pseudomonas aeruginosa [28]): 14 mm
